The values below come from patent publication US6174864A, “Methods for the prevention or treatment of inflammatory bowel diseases” (CCI Corporation, priority 1996, dated 2001).

For data set [1], the system named is myeloperoxidase (MPO), TNB-induced colitis. As to the kind of experiment: MPO activity in intestinal mucous membrane of TNB-induced colitis. It is filed as in vivo, Male Wistar rats. As to conditions: intraabdominal, daily, one week, normal 0.19, control 0.74. The source says: (§1) The trinitrobenzenesulfonic acid (TNB)-induced colitis is said to resemble the inflammatory bowel disease of man, particularly Crohn's disease. In this model, the myeloperoxidase (MPO) activity, i.e. an index of the humectation of neutrophil into the tissue, prominently increases in the intestinal mucous membrane from the initial stage of the TNB administration onward and thereafter induces full-thickness inflammations inclusive of edama, erosion, and necrosis of the intestinal duct. In this lesion of the mucous membrane, the thiobarbituraic acid (TAB) reaction substance, i.e. an index of the peroxide of lipid, also increases and the antioxidizing substances such as the SOD activity, the glutathionperoxidase (GPx) activity, and α-tocopherol conversely decrease. By the use of this model, the chromanol glucoside was tested for the effect thereof manifested in repressing the lesion of the TNB-induced colitis.
(§2) As the chromanol glucoside, the 2-(α-D-glucopyranosyl) methyl-2,5,7,8-tetramethylchroman-6-ol (TMG) represented by the following formula (3) produced by the method described in Example 1 of JP-A-07-118,287 was thoroughly dissolved in water in varying concentrations of 20 mg/ml, 2 mg/ml, and 0.2 mg/ml to obtain injection grade preparations. [drawing 5]
Male Wistar rats 7 weeks old weighing 190-210 g were divided into groups of six heads. […]
(§3) Of the items of rating mentioned above, the damage score, the TBA reactive substance, and the MPO activity were measured by the following methods.
The determination was carried out in accordance with the o-dianisidine-hydrogen peroxide reaction (J. E. Krrawisz, et al.,: Gastroenterology, 87 (1984) 1344-135). […] In 950 μl of a reaction solution prepared by dissolving 16.7 mg of o-dianidine dihydrochloride in 50 mM of potassium phosphate having a pH of 6.0 and further mixing the resulting solution with 100 μl of an aqueous 0.5% hydrogen peroxide solution, 50 μl of the sample was placed and measured for change in absorbance at a wavelength of 460 nm with a spectrophotometer. […]

The test system of data set [2] is TBA reactive substance (index of the peroxide of lipid), TNB-induced colitis. The data set is described as follows: TBA reactive substance in intestinal mucous membrane of TNB-induced colitis. Format: in vivo, Male Wistar rats. As to conditions: intraabdominal, daily, one week, normal 0.13, control 0.53.
Excerpt: as §1, §2
Male Wistar rats 7 weeks old weighing 190-210 g were divided into groups of six heads. To the rats, after 48 hours' fasting, the TBN dissolved in 50% ethanol in a ratio of 120 mg/ml was intestinally administered at a dose of 1 ml/kg. […]
as §3
The determination was performed in accordance with the method proposed by Ohkawa et al. (H. Ohkawa, et al.: Anal. Biochem., 95 (1979) 351-358). […] The supernatant resulting from the centrifugation was measured for absorbance at a wavelength of 535 nm with a spectrophotometer. […] Based on this calibration curve, the TBA reactive substance of a sample was determined.

The subject of a further data set is TNB-induced colitis. The data set is described as follows: Effect of repressing lesion in TNB-induced colitis (body weight increase, damage score, wet weight of intestine). Format: in vivo, Male Wistar rats. As to conditions: intraabdominal, daily, one week; for Wet weight: intestine, normal 0.58, control 2.6; for Damage score: lesion 0-5 plus adhesion 0-3, normal 0, control 7.25; for Amount of increase in body weight: normal group 93.5, control group 17.5.
Excerpt: as §1, §2
Male Wistar rats 7 weeks old weighing 190-210 g were divided into groups of six heads. To the rats, after 48 hours' fasting, the TBN dissolved in 50% ethanol in a ratio of 120 mg/ml was intestinally administered at a dose of 1 ml/kg. Thereafter, the TMG preparations obtained as described above were administered to the rats intraabdominally at a dose of […] per head daily. After one week of the administration, the rats were rated for increase of body weight, damage score of the intestine in a 8 cm region on the side of the anus, wet weight, TBA reactive substance, and MPO activity.
as §3
The lesion on the intestinal mucous membrane was classified on the six-point (0-5) scale in accordance with the Morris Classification (G. P. Morris, et al.,: Gastoenterology, 96 (1989) 750-803) and the degree of adhesion to the intestinal mucous membrane was classified on the four-point (0-3) scale (0: absence of adhesion, 1: presence of incontinuous adhesion, 2: presence of continuous adhesion, and 3: presence of clots). The sums of these points were used for rating.

Another data set has as its system ICR type mice. As to the kind of experiment: Test for acute toxicity. Format: in vivo. As to conditions: oral, 500 mg/kg in 5% gum arabic solution, one week observation. The procedure:
The preventive and curative agent of this invention for inflammatory bowel diseases was tested for acute toxicity in an effort to confirm the safety thereof. ICR type mice 4-5 weeks old were divided into groups of three heads. The same TMG as mentioned above was suspended as a chromanol glucoside in 5% gum arabic solution. The resultant suspension was orally administered to the rats in a dosage of 500 mg/kg as reduced to TMG, with the rats kept under observation for one week. In this case, 0.3 ml of a 5% gum arabic solution was administered to a control group.

A further data set is described as follows: Water-solubility. Format: physicochemical. As to conditions: ratio to that of Trolox.
For data set [3] the following is noted: cited from earlier work; for water-solubility: prior-art compounds.

On to `Cc1c(C)c2c(c(C)c1O)CCC(C)(CO[C@H]1O[C@H](CO)[C@@H](O)[C@H](O)[C@H]1O)O2` (some centres unmarked) [TMG], for which the MPO activity in data set [1] (TMG 0.2 mg/ml) was determined as 0.52 U/l/mg protein; in data set [1] (TMG 2 mg/ml), 0.64 U/l/mg protein; in data set [1] (TMG 20 mg/ml), 0.48 U/l/mg protein. Moreover, the figures for the TAB reactive substance in data set [2] (TMG 0.2 mg/ml), in data set [2] (TMG 2 mg/ml) and in data set [2] (TMG 20 mg/ml) were 0.31 ng/mg protein, 0.38 ng/mg protein and 0.35 ng/mg protein, respectively. Moreover, the Wet weight in the data set with TNB-induced colitis (TMG 0.2 mg/ml) is listed as 1.06 g/8 cm; with TNB-induced colitis (TMG 2 mg/ml), 1.15 g/8 cm; in the data set with TNB-induced colitis (TMG 20 mg/ml), 0.86 g/8 cm. For the same compound, the Damage score in the data set with TNB-induced colitis (TMG 0.2 mg/ml) came out at 4.75; in the data set with TNB-induced colitis (TMG 2 mg/ml) it was 3.75; in the data set on TNB-induced colitis (TMG 20 mg/ml), 4. The figures for the “Amount of increase in body weight” value in the data set with TNB-induced colitis (TMG 0.2 mg/ml), in the data set with TNB-induced colitis (TMG 2 mg/ml) and with TNB-induced colitis (TMG 20 mg/ml) were 63 g/one week, 64 g/one week and 57 g/one week, respectively. In addition, the “death of mouse in acute toxicity test” value in the data set on ICR type mice is listed as “No case of death”.

Consider `Cc1c(C)c2c(c(C)c1O)CCC(C)(CO)O2` (centres unmarked) [TMC-2-substituted methanol, 2-hydroxymethyl-2,5,7,8-tetramethylchroman-6-ol], for which, in the data set “Water-solubility”, the “water-solubility relative to Trolox” value is reported as “about 6.3 times”. Besides, in data set [3], the water-solubility entry is “about 100 mg/100 ml”.

In the case of `Cc1c(C)c2c(c(C)c1O)CCC(C)(C(=O)O)O2` (centres unmarked) [Trolox, 6-hydroxy-2,5,7,8-tetramethylchroman-2-carboxylic acid], in data set [3], the water-solubility result is given as “about 15 mg/100 ml”.

In the case of `Cc1c(C)c2c(c(C)c1O)CCC(C)(CCCC(C)CCCC(C)CCCC(C)C)O2` (stereo not drawn) [vitamin E, α-tocopherol], in data set [3] (prior-art compound), the “water-solubility (in words)” value is “not soluble in water”.
